From ChEMBL document CHEMBL4627390, “Effect of Temperature on 1H NMR Spectra, Antitrypanosomal Activity, Conformational Analysis, and Molecular Docking of Curine Derivatives from Berberis brevissima” (2020)
≈ marks a conversion by molar mass, not a printed value.

How the values were obtained:
Type in all cases: functional
[1] = test system: Trypanosoma brucei brucei; assay: Antitrypanosomal activity against Trypanosoma brucei brucei TC427 trypomastigotes assessed percent viability at 20 ug/ml after 24 hrs by AlamarBlue assay relative to DMSO
[2] = test system: Trypanosoma brucei brucei; assay: Antitrypanosomal activity against Trypanosoma brucei brucei TC427 trypomastigotes after 24 hrs by AlamarBlue assay; settings: TC427, 24 h
[3] = test system: Trypanosoma brucei brucei; assay: Antitrypanosomal activity against Trypanosoma brucei brucei

| Structure (SMILES) | Activity [1] [%] | MIC [2] [µM] | MIC [3] [µM] |
| --- | --- | --- | --- |
| COc1cc2c3cc1Oc1cc(ccc1OC(C)=O)C[C@@H]1c4c(cc(OC)c(OC)c4Oc4ccc(cc4)C[C@H]3N(C)CC2)CCN1C | 1.4 | 2.3 (≈ 1.5 µg/mL) |  |
| COc1cc2c3cc1Oc1cc(ccc1O)C[C@@H]1c4c(cc(OC)c(OC)c4Oc4ccc(cc4)C[C@H]3N(C)CC2)CCN1C | 1.6 | 2.6 (≈ 1.58 µg/mL) |  |
| COc1ccc2cc3[n+](cc2c1OC)CCc1cc2c(cc1-3)OCO2 [BERBERINE] |  |  | 74.4 |
| COc1cc2c3cc1Oc1cc(ccc1O)C[C@@H]1c4c(cc(OC)c(O)c4Oc4ccc(cc4)C[C@H]3N(C)CC2)CCN1C | 1.9 | 3.8 (≈ 2.26 µg/mL) |  |
| COc1cc2c3cc1Oc1cc(cc([N+](=O)[O-])c1O)C[C@@H]1c4c(cc(OC)c(OC)c4Oc4ccc(cc4)C[C@H]3N(C)CC2)CCN1C | 1.5 | 2.2 (≈ 1.44 µg/mL) |  |
| COc1ccc2c(c1OC)C(C(Cl)(Cl)Cl)N1CCc3cc4c(cc3C1=C2)OCO4 (stereo not given) |  |  | 27.6 (≈ 12.6 µg/mL) |
